According to BindingDB's records for doi:10.1016/s0960-894x(98)00316-3 (Nippon Roche Research Center, 1998):

What follows are compounds tested against Lanosterol 14-alpha demethylase (Candida albicans) (UniProt P10613) (assay: In vitro inhibition of cytochrome P450 lanosterol C14 demethylase in Candida albicans CY1005).
Lanosterol 14-alpha demethylase (Candida albicans), sequence (P10613 whole entry, looked up): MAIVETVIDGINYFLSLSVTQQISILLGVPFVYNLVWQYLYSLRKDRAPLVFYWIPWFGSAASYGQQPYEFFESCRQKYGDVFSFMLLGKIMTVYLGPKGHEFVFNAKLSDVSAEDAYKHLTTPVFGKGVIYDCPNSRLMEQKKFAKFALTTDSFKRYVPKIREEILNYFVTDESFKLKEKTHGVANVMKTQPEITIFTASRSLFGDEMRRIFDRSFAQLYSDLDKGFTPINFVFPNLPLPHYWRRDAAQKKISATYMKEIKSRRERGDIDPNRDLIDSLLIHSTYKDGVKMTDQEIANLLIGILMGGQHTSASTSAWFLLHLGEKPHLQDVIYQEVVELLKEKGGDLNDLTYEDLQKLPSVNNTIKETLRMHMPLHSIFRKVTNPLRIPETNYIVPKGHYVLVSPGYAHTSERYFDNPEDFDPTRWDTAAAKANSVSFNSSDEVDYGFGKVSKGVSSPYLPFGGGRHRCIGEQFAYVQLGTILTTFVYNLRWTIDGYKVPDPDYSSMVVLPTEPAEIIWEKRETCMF

SMILES	IC50 [µM]
CCc1ccc(CC[C@@H]2CCC(C)(C)C(OCCO)[C@H]2Cn2cncn2)cc1 (some centres not stated)	0.083
CCc1ccc(CC[C@@H]2CCC(C)(C)/C(=N/OC)[C@H]2Cn2cncn2)cc1	0.0868
COC1[C@@H](Cn2cncn2)[C@H](COc2ccc(OC(F)(F)F)cc2)CCC1(C)C (some centres not stated)	0.118
CC1(C)CC[C@@H](COc2ccc(OC(F)(F)F)cc2)[C@H](Cn2cncn2)/C1=N\O	0.13

Compounds with a lower IC50, results first:

IC50 [µM]	SMILES
0.0733	CCc1ccc(CC[C@@H]2CCC(C)(C)/C(=N/O)[C@H]2Cn2cncn2)cc1
0.0225	CC1(C)CC[C@@H](COc2ccc(OC(F)(F)F)cc2)[C@H](Cn2cncn2)C1OCCO (some centres not stated)
0.0563	CO/N=C1\[C@@H](Cn2cncn2)[C@H](COc2ccc(OC(F)(F)F)cc2)CCC1(C)C
